Earlier results on 3 sequences are cited in patent US20170280761A1, “METHOD TO CONCENTRATE APOA-1 MIMETIC PEPTIDES TRANSGENICALLY EXPRESSED IN PLANTS” (The Regents of the University of California, priority 2014, published 2017).

One data set concerns C57BL/6J-Apc Min/+ mice. Conditions: 4F in mouse chow.
The test system of another data set is colon cancer. Conditions: 4F added to mouse chow.
For data set [1], the system named is epithelial ovarian cancer cells.
For data set [2], the system named is Hypoxia-inducible factor-1 (HIF-1). Conditions: addition of the 4F peptide.
Another data set relates to tumor invasiveness. The settings on record: administration of the 4F peptide.
For a further data set, the system named is ovarian cancer. Conditions: for levels of lysophosphatidic acid (LPA) / tumor growth: administered either orally or by injection.
The target of data set [3] is T1, scavenger receptor A (SR-A) (Homo sapiens, UniProt P21757).
T1 sequence (P21757 1-451): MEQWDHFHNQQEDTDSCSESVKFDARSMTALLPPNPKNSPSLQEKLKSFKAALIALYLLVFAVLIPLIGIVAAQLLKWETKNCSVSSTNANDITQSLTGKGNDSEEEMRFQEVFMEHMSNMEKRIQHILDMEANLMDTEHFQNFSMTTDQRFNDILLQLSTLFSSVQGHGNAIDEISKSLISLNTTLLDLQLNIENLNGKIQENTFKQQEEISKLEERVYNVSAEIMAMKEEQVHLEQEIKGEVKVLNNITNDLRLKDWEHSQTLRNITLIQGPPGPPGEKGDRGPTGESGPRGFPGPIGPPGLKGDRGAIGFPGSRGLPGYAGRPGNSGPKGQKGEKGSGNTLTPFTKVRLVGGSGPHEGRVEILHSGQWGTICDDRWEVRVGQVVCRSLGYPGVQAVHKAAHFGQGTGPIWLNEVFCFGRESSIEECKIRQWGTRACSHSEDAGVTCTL

The conditions of data set [4]: mouse, in vivo.

Take “DWFKAFYDKVAEKFKEAF (Synthetic recombinantly expressed peptide) [4F]”: in the data set with C57BL/6J-Apc Min/+ mice, the LPA levels entry was “decreased”; the “number and size of tumors in the intestinal tract” value is on record as “reduced”. Moreover, in the data set with colon cancer, the “plasma LPA levels” value is reported as “decreased”, the tumor angiogenesis entry is listed as “decreased” and the tumor burden entry is recorded as “decreased”. Besides, in data set [1], the “antioxidant enzyme manganese superoxide dismutase (MnSOD)” value is reported as “upregulated”; the “proliferation and ability to form tumors” value is “inhibited”. The “HIF-1 alpha induced in vitro by LPA” value in data set [2] is reported as “decreased”. For the same sequence, the tumor invasiveness result in the data set with tumor invasiveness is “inhibited”. In the data set with ovarian cancer, the “levels of lysophosphatidic acid (LPA)” value was “decreased” and the tumor growth entry is on record as “decreased”. Also, the “expression of HIF-1 alpha in mouse ovarian tumor tissues” value in the data set with ovarian cancer (administration of the 4F peptide) is “markedly decreased”. For the same sequence, the “inhibition of SR-A” value in data set [3] is “potent inhibitor”.
“DWLKAFYDKFFEKFKEFF (Synthetic recombinantly expressed peptide) [6F]”: in data set [4], the “amount of intact 6F peptide found in the small intestine” value was 15.6±7.4 µg 6F per 200 mg small intestine, the “intact 6F peptide in the plasma” value is “not in the plasma” and the “intact 6F peptide in the small intestine” value is recorded as “found”.
Turning to “DWLKAFYDKVFEKFKEFF (Synthetic recombinantly expressed peptide) [5F]”, in the data set with ovarian cancer, the “levels of lysophosphatidic acid (LPA)” value is recorded as “decreased” and the tumor growth result is reported as “decreased”.
